Literature values, collected in CN104352465A, “一种不含二氧化硅的琥珀酸普芦卡必利药物组合物及其制备方法” (CHENGDU SINO-STRONG PHARMACEUTICAL Co Ltd, priority 2014, dated 2015).

Conditions: within shelf life, with the diluent lactose monohydrate

- adduct formation with lactose monohydrate: 形成乳糖加合物
SMILES: COCCCN1CCC(NC(=O)c2cc(Cl)c(N)c3c2OCC3)CC1.O=C(O)CCC(=O)O [琥珀酸普芦卡必利, 4-氨基-5-氯-2,3-二氢-N-[1-(3-甲氧基丙基)-4-哌啶基]-7-苯并呋喃甲酰胺丁二酸盐]
